Assay results reported in paper PMC1568117 (Environmental Health Perspectives, 1989).

How the values were obtained:
[1] = tested on: B6C3F1 mice; conditions: week 91
[2] = tested on: F344/N rats; conditions: week 92

c1ccccc1 [benzene]
Survival in all groups [1]: greater than 60% | Survival in all groups [2]: greater than 60%
